Here are results for 35 compounds from ChEMBL document CHEMBL1944561, “Discovery and SAR exploration of a novel series of imidazo[4,5-b]pyrazin-2-ones as potent and selective mTOR kinase inhibitors” (Bioorg Med Chem Lett, 2011).

Data set [1] has as its target T1, Serine/threonine-protein kinase mTOR (Homo sapiens, UniProt P42345). Description: Inhibition of mTOR.
In data set [2] the target is T1, Serine/threonine-protein kinase mTOR. Kind of data set: Inhibition of mTOR-mediated Akt phosphorylation in human PC3 cells. The data set is classed as cell-based, PC-3.
The target is the same in data set [3]. Description: Inhibition of mTOR-mediated S6 phosphorylation in human PC3 cells. The data set is classed as cell-based, PC-3.
The subject of a further data set is PC-3. Description: Antiproliferative activity against human PC3 cells.
The target of data set [4] is Phosphatidylinositol 4,5-bisphosphate 3-kinase catalytic subunit alpha isoform (Homo sapiens, UniProt P42336). Description: Inhibition of PI3Kalpha.
Phosphatidylinositol 4,5-bisphosphate 3-kinase catalytic subunit alpha isoform, sequence (P42336 whole entry, canonical isoform): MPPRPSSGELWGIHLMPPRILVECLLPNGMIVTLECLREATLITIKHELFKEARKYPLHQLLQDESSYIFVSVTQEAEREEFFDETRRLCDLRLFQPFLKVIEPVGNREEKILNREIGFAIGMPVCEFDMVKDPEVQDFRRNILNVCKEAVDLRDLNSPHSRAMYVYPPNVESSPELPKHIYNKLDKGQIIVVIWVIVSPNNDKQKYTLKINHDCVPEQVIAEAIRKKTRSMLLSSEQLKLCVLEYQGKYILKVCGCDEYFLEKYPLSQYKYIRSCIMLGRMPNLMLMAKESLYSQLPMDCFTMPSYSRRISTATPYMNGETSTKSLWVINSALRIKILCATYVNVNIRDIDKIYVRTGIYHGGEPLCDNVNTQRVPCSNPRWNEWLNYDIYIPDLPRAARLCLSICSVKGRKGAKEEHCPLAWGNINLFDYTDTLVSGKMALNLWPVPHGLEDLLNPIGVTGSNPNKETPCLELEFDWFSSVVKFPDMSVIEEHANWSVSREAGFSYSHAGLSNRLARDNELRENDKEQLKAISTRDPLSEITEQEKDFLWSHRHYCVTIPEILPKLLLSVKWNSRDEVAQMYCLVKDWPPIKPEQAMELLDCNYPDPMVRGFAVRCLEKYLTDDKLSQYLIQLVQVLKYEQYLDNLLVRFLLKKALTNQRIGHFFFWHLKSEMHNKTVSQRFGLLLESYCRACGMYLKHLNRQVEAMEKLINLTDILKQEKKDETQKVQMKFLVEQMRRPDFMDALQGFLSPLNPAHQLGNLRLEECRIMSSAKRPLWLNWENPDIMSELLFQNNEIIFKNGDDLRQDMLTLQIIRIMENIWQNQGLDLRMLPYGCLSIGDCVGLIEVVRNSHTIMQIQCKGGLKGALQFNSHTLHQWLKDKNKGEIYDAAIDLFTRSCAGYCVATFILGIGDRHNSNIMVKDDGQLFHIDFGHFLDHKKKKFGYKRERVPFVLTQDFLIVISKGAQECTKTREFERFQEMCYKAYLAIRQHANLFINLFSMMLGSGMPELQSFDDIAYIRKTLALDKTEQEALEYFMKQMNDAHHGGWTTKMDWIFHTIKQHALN
Data set [5] can be described thus: Metabolic stability in rat hepatocytes assessed as compound remaining after 60 mins. The data set is classed as ADME, cell-based, Hepatocyte. The following applies: read-out: Stability.

Take `O=c1[nH]c2ncc(-c3ccc(-n4ccnn4)cc3)nc2n1CC1CCCCC1`: in data set [1], the IC50 – broadly, the concentration at which inhibition is half-maximal – is greater than 10000 nM.

With `NCc1ccc(-c2cnc3[nH]c(=O)n(CC4CCCCC4)c3n2)cc1`, the IC50 in data set [1] amounted to 8300 nM.

The compound `O=c1[nH]c2ncc(-c3ccc(O)cc3)nc2n1Cc1cccc(O)c1` came in with an IC50 in data set [1] of 1050 nM.

The compound `O=c1[nH]c2ncc(-c3ccc(O)cc3)nc2n1C1CCCCC1` came in with an IC50 in data set [1] of 2880 nM.

For the compound `Nc1nc2ccc(-c3cnc4[nH]c(=O)n(CC5CCCCC5)c4n3)cc2[nH]1`, the IC50 turned out to be 92 nM in data set [2], 201 nM in data set [3], 566 nM in the data set with PC-3 and 2 nM in data set [1].

`COCCn1c(=O)[nH]c2ncc(-c3ccc(O)cc3)nc21`: the IC50 in data set [1] was determined as 2380 nM.

For the compound `NC(=O)c1ccc(-c2cnc3[nH]c(=O)n(CC4CCCCC4)c3n2)cc1`, the IC50 was 70 nM in data set [1] and greater than 30000 nM in data set [4].

Consider `O=C(O)c1ccc(-c2cnc3[nH]c(=O)n(CC4CCCCC4)c3n2)cc1`, for which the values for the IC50 in data set [1] and in data set [4] were 130 nM and 23500 nM, respectively.

With `O=c1[nH]c2ncc(-c3ccc4cc[nH]c4c3)nc2n1CC1CCCCC1`, the IC50 in data set [1] was found to be 3500 nM.

On to `O=c1[nH]c2ncc(-c3ccc4[nH]cnc4c3)nc2n1CC1CCOCC1`, for which 30 nM corresponded to half-maximal inhibition in data set [1] (IC50).

On to `O=c1[nH]c2ncc(-c3ccc(CO)cc3)nc2n1CC1CCCCC1`, for which the remaining at 1 h in data set [5] worked out at 8%. Also, the IC50 in data set [1] is 60 nM; in data set [4], greater than 30000 nM.

Regarding `NC(=O)[C@H]1CC[C@H](n2c(=O)[nH]c3ncc(-c4ccc(O)cc4)nc32)CC1`, the IC50 in data set [2] was greater than 5000 nM; in data set [3], greater than 5000 nM; in the data set with PC-3 it was greater than 5000 nM; in data set [1], 178 nM.

Compound `O=c1[nH]c2ncc(-c3ccc(O)cc3)nc2n1CC1CCOCC1` displayed an IC50 in data set [1] of 340 nM.

The compound `O=c1[nH]c2ncc(-c3cnc4[nH]cnc4c3)nc2n1CC1CCOCC1` gave an IC50 in data set [1] of 390 nM.

Take `O=c1[nH]c2ncc(-c3ccc4[nH]ccc4c3)nc2n1CC1CCOCC1`: the concentration for half-maximal inhibition (IC50) in data set [2] is 50 nM; in data set [3], 231 nM; in the data set with PC-3 it was 602 nM; in data set [1] it was 21 nM; in data set [4] it was greater than 30000 nM.

On to `CC(C)NC(=O)c1ccc(-c2cnc3[nH]c(=O)n(CC4CCCCC4)c3n2)cc1`, for which, in data set [1], the IC50 came out at 8900 nM.

For the compound `CNC(=O)c1ccc(-c2cnc3[nH]c(=O)n(CC4CCCCC4)c3n2)cc1`, the midpoint of inhibition in data set [1], the IC50, lay at 120 nM.

In data set [1], `O=c1[nH]c2ncc(-c3ccc(O)cc3)nc2n1C1CCOCC1` came in with a 50% inhibitory concentration (IC50) of 1670 nM.

For the compound `NC(=O)[C@H]1CC[C@@H](n2c(=O)[nH]c3ncc(-c4ccc(O)cc4)nc32)CC1`, the concentration for half-maximal inhibition (IC50) was greater than 5000 nM in data set [2], greater than 5000 nM in data set [3], greater than 5000 nM in the data set with PC-3 and 179 nM in data set [1].

In data set [1], `CN1CCC(Cn2c(=O)[nH]c3ncc(-c4ccc(O)cc4)nc32)CC1` gave an IC50 of 14100 nM.

Regarding `CC(C)Cn1c(=O)[nH]c2ncc(-c3ccc(O)cc3)nc21`, the IC50 in data set [1] is 1020 nM.

In data set [1], `O=c1[nH]c2ncc(-c3ccc(O)cc3)nc2n1CC1CCCCC1` yielded an IC50 of 780 nM.

Turning to `O=c1[nH]c2ncc(-c3ccc(-c4nc[nH]n4)cc3)nc2n1CC1CCCCC1`, in data set [1], the 50% inhibitory concentration (IC50) stood at 9 nM.

As for `O=c1[nH]c2ncc(-c3ccc(-c4cnco4)cc3)nc2n1CC1CCCCC1`, the IC50 in data set [1] came out at 1360 nM.

Turning to `Nc1nc2cc(-c3cnc4[nH]c(=O)n(CC5CCOCC5)c4n3)ccc2[nH]1`, in data set [1], inhibition was half-maximal at 10 nM (IC50).

For the compound `CC(C)n1c(=O)[nH]c2ncc(-c3ccc(O)cc3)nc21`, in data set [1], the IC50 is 1040 nM.

Consider `O=c1[nH]c2ncc(-c3ccccc3)nc2n1CC1CCCCC1`, for which the IC50 in data set [1] was greater than 10000 nM.

`COC(=O)c1ccc(-c2cnc3[nH]c(=O)n(CC4CCCCC4)c3n2)cc1` returned an IC50 in data set [1] greater than 10000 nM.

As for `CO[C@H]1C[C@@H]2CC[C@@H](C)[C@@](O)(O2)C(=O)C(=O)N2CCCC[C@H]2C(=O)O[C@H]([C@H](C)C[C@@H]2CC[C@@H](O)[C@H](OC)C2)CC(=O)[C@H](C)/C=C(\C)[C@@H](O)[C@@H](OC)C(=O)[C@H](C)C[C@H](C)/C=C/C=C/C=C/1C` [SIROLIMUS], in the data set with PC-3, the IC50 is less than 10 nM.

The compound `O=c1[nH]c2ncc(-c3ccc(-c4nn[nH]n4)cc3)nc2n1CC1CCCCC1` yielded a 50% inhibitory concentration (IC50) in data set [1] of 1590 nM.

Compound `O=c1[nH]c2ncc(-c3ccc(-c4ncc[nH]4)cc3)nc2n1CC1CCOCC1` came in with an IC50 in the data set with PC-3 of 916 nM.

As for `O=c1[nH]c2ncc(-c3ccc(-c4cn[nH]c4)cc3)nc2n1CC1CCCCC1`, the concentration for half-maximal inhibition (IC50) is 120 nM in data set [1] and greater than 30000 nM in data set [4].

For `CNc1nc2cc(-c3cnc4[nH]c(=O)n(CC5CCOCC5)c4n3)ccc2[nH]1`, the 50% inhibitory concentration (IC50) is greater than 5000 nM in data set [3], greater than 5000 nM with PC-3, 6 nM in data set [1] and greater than 30000 nM in data set [4].

As to `O=c1[nH]c2ncc(-c3ccc4[nH]ccc4c3)nc2n1CC1CCCCC1`, the IC50 was 63 nM in data set [1] and greater than 30000 nM in data set [4].

In the case of `O=c1[nH]c2ncc(-c3ccc4[nH]ncc4c3)nc2n1CC1CCCCC1`, the half-maximal inhibitory concentration (IC50) was determined as 633 nM in data set [3], 2120 nM with PC-3, 190 nM in data set [1] and 12600 nM in data set [4].
